How the values were obtained:
Serine protease 1 = Serine protease 1 (Homo sapiens, UniProt P07477); assay: Inhibition of human PRSS1 assessed as enzymatic cleavage of Benzoyl-GlyPro-Arg'Rh110-gammaGlu-OH by fluorescence analysis
[1] = molecular target: Voltage-gated inwardly rectifying potassium channel KCNH2 (Homo sapiens, UniProt Q12809); assay: Displacement of [3H]-dofetilide from human ERG expressed in HEK293 cells measured after 90 mins by scintillation proximity assay; format: cell-based
[2] = Dissociation constant, pKa of the compound; format: physicochemical
Neutrophil elastase = molecular target: T1, Neutrophil elastase (Homo sapiens, UniProt P08246); assay: Inhibition of human neutrophil elastase
T1 sequence (P08246 whole entry): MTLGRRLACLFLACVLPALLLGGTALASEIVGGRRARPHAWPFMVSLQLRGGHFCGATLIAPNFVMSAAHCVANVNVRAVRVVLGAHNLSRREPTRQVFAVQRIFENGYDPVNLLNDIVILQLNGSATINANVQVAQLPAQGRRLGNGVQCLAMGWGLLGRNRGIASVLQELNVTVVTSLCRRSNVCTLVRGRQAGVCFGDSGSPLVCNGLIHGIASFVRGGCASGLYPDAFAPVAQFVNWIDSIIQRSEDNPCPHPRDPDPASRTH

[3] = Solubility of the compound at pH 6.8; format: physicochemical; details: buffer
Coagulation factor X = Coagulation factor X (Homo sapiens, UniProt P00742); assay: Inhibition of human f10a
Prothrombin = Prothrombin (Homo sapiens, UniProt P00734); assay: Inhibition of human thrombin
[4] = Lipophilicity, log P of the compound; format: physicochemical; details: octanol/water
Chymotrypsin = Chymotrypsin (Homo sapiens, UniProt Q99895+P17538+P40313+Q6GPI1); assay: Inhibition of human chymotrypsin; format: protein assay
[5] = Clearance in Sprague-Dawley rat at 1 mg/kg, iv; format: ADME, organism-based; details: in vivo
[6] = AUC (0 to 24 hrs) in Sprague-Dawley rat at 1 mg/kg, iv; format: ADME, organism-based; parameters: time < 24 hr, dose 1 mg/kg, route intravenous; details: in vivo

Sequence of Serine protease 1 (P07477 whole entry): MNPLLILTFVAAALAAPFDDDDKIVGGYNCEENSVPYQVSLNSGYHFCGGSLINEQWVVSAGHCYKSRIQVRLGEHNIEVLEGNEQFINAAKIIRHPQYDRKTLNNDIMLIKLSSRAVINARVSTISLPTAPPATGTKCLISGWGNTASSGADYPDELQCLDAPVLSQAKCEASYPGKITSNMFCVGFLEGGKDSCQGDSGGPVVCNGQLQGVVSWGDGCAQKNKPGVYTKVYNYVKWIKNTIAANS
Sequence of Voltage-gated inwardly rectifying potassium channel KCNH2 (Q12809 whole entry): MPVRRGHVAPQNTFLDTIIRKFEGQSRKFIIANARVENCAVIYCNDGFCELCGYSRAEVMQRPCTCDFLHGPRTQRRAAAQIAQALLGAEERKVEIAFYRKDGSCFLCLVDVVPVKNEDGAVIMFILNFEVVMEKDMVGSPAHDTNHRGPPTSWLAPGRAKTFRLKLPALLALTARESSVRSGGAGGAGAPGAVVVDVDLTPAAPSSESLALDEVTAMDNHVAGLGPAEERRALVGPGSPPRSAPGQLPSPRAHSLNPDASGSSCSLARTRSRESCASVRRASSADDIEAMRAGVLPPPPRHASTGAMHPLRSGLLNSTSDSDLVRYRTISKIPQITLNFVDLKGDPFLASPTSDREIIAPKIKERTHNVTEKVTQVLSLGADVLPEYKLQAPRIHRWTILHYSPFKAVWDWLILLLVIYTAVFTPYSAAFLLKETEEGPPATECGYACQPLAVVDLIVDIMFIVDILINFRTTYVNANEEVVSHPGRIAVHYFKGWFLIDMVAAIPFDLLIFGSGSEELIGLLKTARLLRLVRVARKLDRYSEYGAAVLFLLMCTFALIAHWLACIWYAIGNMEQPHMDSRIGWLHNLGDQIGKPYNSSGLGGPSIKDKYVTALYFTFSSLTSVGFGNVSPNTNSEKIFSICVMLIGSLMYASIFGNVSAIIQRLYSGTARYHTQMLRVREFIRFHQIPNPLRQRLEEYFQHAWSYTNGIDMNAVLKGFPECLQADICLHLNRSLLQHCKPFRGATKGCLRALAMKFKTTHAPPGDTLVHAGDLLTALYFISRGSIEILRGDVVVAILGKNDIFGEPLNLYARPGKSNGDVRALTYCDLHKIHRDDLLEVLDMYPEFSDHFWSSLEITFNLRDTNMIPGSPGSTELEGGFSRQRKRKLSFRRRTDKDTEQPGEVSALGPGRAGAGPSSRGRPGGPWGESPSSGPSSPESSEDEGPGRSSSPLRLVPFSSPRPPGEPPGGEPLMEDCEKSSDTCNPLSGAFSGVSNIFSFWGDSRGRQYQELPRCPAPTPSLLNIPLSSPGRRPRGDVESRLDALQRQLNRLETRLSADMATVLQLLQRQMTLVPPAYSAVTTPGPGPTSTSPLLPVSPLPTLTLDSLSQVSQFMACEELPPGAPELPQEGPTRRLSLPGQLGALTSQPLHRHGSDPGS
Sequence of Coagulation factor X (P00742 41-179 limits assumed): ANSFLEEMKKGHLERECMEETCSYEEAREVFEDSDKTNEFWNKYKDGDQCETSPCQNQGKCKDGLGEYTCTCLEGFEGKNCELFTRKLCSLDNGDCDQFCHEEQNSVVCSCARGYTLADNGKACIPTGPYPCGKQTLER
Sequence of Coagulation factor X (P00742 235-488 limits assumed): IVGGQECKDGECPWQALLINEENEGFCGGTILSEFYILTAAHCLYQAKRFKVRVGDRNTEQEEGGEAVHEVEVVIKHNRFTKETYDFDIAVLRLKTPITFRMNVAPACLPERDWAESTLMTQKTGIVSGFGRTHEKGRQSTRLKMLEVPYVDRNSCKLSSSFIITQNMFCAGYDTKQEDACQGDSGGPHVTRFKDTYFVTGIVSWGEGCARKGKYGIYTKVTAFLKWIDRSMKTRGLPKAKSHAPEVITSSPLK

Compound	IC50 (Serine protease 1) [µM]	IC50 [1] [µM]	further results
CNC(=O)[C@@H]1C[C@H](N2CCc3c(ncnc3OCCc3ccccc3)C2)CN1C(=O)c1ccc(CN)c(OC)c1	0.005	> 30	
CNC(=O)[C@@H]1C[C@H](N2CCc3ccccc3C2)CN1C(=O)c1ccc(CN)c(OC)c1	0.49	> 30	
CNC(=O)[C@@H]1C[C@H](N2CCc3c(ncnc3OCCC3CC3)C2)CN1C(=O)c1ccc(CN)c(OC)c1	0.006	> 30	
Cc1cc(C(=O)N2C[C@@H](n3cc(C4CC4)nn3)C[C@H]2C(=O)NCC(c2ccccc2)c2ccccc2)ccc1CN	0.11		pKa [2]: 8.7
CNC(=O)[C@@H]1C[C@H](N2CCc3c(cccc3OC)C2)CN1C(=O)c1ccc(CN)c(OC)c1	0.1	> 30	
NCc1ccc(C(=O)N2C[C@@H](n3cc(C4CC4)nn3)C[C@H]2C(=O)NCC(c2ccccc2)c2ccccc2)cc1	0.11	0.5	IC50 (Neutrophil elastase): > 100 µM; pKa [2]: 8.5; solubility [3]: > 1000 µM; IC50 (Coagulation factor X): 71 µM; IC50 (Prothrombin): 94 µM; logP [4]: 3; IC50 (Chymotrypsin): > 100 µM
CNC(=O)[C@@H]1C[C@H](N2CCc3c(cccc3OCCOC)C2)CN1C(=O)c1ccc(CN)c(OC)c1	0.008	> 30	IC50 (Neutrophil elastase): > 100 µM; solubility [3]: > 1000 µM; IC50 (Coagulation factor X): > 100 µM; clearance [5]: 9 mL/min/kg; AUC(0-t) at 24 h [6]: 3.88 µM·h; IC50 (Prothrombin): > 100 µM; IC50 (Chymotrypsin): > 100 µM
CNC(=O)[C@@H]1C[C@H](N2CCc3c(cccc3OCCc3ccccc3)C2)CN1C(=O)c1ccc(CN)c(OC)c1	0.003	4	
CNC(=O)[C@@H]1C[C@H](N2CCc3c(cccc3OCCC3CC3)C2)CN1C(=O)c1ccc(CN)c(OC)c1	0.002	11	
NCc1ccc(C(=O)N2C[C@@H](n3cc(C4CC4)nn3)C[C@H]2C(=O)NCC(c2ccccc2)c2ccccc2)cc1F	31		pKa [2]: 6.2

Second part, led by results:

IC50 (Serine protease 1) [µM]	Compound	IC50 [1] [µM]	further results
0.33	COc1cc(C(=O)N2C[C@@H](n3cc(C4CC4)nn3)C[C@H]2C(=O)N2CC[C@@H](c3ccccc3)C2)ccc1CN		
0.22	COc1cc(C(=O)N2C[C@@H](n3cc(C4CC4)nn3)C[C@H]2C(=O)N2CC[C@H](c3ccccc3)C2)ccc1CN	14	
0.16	COc1cc(C(=O)N2C[C@@H](n3cc(C4CC4)nn3)C[C@H]2C(=O)NCCc2ccccc2)ccc1CN		
0.11	COc1cc(C(=O)N2C[C@@H](n3cc(C4CC4)nn3)C[C@H]2C(=O)N[C@@H]2C[C@H]2c2ccccc2)ccc1CN	22	
0.019	COc1cc(C(=O)N2C[C@@H](n3cc(C4CC4)nn3)C[C@H]2C(=O)N[C@H]2CCCC[C@@H]2c2ccccc2)ccc1CN		IC50 (Neutrophil elastase): > 100 µM; IC50 (Coagulation factor X): 72 µM; IC50 (Prothrombin): 54 µM; IC50 (Chymotrypsin): > 100 µM
0.011 to 0.014	COc1cc(C(=O)N2C[C@@H](n3cc(C4CC4)nn3)C[C@H]2C(=O)NCC(c2ccccc2)c2ccccc2)ccc1CN	2.4	IC50 (Neutrophil elastase): 55 µM; pKa [2]: 9.2; solubility [3]: > 1000 µM; IC50 (Coagulation factor X): 31 µM; clearance [5]: 33 mL/min/kg; AUC(0-t) at 24 h [6]: 1.03 µM·h; IC50 (Prothrombin): 27 µM; IC50 (Chymotrypsin): 15 µM
0.96	COc1cc(C(=O)N2C[C@@H](n3cc(C4CC4)nn3)C[C@H]2C(=O)N[C@H]2C[C@@H]2c2ccccc2)ccc1CN		
2.1	CNC(=O)[C@@H]1C[C@H](n2cc(C3CC3)nn2)CN1C(=O)c1ccc(CN)c(OC)c1	> 30	
